Data reported in patent US10336732B2, “1-heterocyclyl isochromanyl compounds and analogs for treating CNS disorders” (Sunovion Pharmaceuticals Inc., priority 2015, dated 2019).

How the values were obtained:
GABA (non-selective) = experiment: In vitro radioligand binding assay, GABA (non-selective), [3H]GABA; conditions: rat cerebral cortex membranes
Procedure: (§1) Certain compounds were tested by in vitro binding assays using standard procedures. […] These receptors and assays are well known to those skilled in the art, as exemplified by the following: Abramovitz, M. et al. (2000), Biochem. Biophys. Acta., 1483: 285-293 (EP4, IP (PGI2)); Aharony, D. et al. (1993), Mol. Pharmacol., 44: 356-363 (NK2); Ardati, A. et al. (1997), Mol. Pharmacol., 51: 816-824 (NOP (ORL1)); Bignon, E. et al. (1999), J. Pharmacol. Exp. Ther. 289: 742-751 (CCK1 (CCKA)); Bloomquist, B. T. et al. (1998), Biochem. Biophys. Res. Commun., 243: 474-479 (GAL2); Brockhaus, M. et al. (1990), Proc. Natl. Acad. Sci. U.S.A., 87: 3127-3131 (TNF-α); Brown, G. B. (1986), J. Neurosci., 6: 2064-2070 (Na+ channel (site 2)); Buchan, K. W. et al. (1994), Brit. J. Pharmacol., 112: 1251-1257 (ETA); Cesura, A. M. et al. (1990), Mol. Pharmacol., 37: 358-366 (MAO-A); Choi, D. S. et al. (1994), FEBS Lett., 352: 393-399 (5-HT2B); Clark, A. F. et al. (1996), Invest. Ophtalmol. Vis. […]

5-HT transporter = molecular target: T1, 5-HT transporter (Homo sapiens, UniProt P31645); experiment: In vitro radioligand binding assay, 5-HT transporter, [3H]imipramine; conditions: human recombinant (CHO cells)
T1 construct: expressed in transfected cells; host or cells: CHO cells
Procedure: as §1

5-HT5a = molecular target: T2, 5-HT5a (Homo sapiens, UniProt P47898); experiment: In vitro radioligand binding assay, 5-HT5a, [3H]LSD; conditions: human recombinant (HEK-293 cells)
T2 construct: expressed in transfected cells; host or cells: HEK-293 cells
Procedure: as §1

T1 sequence (P31645 whole entry): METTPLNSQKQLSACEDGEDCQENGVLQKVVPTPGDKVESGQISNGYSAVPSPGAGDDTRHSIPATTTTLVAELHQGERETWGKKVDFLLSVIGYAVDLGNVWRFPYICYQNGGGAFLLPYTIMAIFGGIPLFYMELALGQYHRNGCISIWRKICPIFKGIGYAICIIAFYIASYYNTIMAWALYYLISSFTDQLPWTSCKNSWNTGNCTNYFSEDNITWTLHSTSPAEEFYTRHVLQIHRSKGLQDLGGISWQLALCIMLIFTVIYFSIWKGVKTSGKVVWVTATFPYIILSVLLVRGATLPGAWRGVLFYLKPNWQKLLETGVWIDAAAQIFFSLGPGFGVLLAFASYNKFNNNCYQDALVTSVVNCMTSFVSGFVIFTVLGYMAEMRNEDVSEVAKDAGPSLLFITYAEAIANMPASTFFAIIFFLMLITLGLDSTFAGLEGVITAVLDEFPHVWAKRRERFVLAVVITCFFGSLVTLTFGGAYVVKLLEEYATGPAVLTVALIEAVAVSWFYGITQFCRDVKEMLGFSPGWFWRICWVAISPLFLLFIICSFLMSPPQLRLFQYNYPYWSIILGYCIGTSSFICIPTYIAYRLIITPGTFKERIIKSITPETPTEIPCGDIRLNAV
T2 sequence (P47898 whole entry): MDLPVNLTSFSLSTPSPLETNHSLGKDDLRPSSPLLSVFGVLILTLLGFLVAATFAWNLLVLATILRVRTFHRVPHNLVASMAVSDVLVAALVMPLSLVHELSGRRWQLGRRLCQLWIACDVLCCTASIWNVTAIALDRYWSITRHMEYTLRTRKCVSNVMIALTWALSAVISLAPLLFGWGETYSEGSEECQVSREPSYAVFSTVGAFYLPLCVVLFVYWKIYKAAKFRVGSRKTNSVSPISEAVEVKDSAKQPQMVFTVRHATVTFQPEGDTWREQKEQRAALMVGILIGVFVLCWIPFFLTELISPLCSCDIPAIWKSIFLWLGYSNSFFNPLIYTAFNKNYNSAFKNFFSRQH

Fc1ccc2c(c1)[C@H]([C@@H]1CCCN1)OCC2 [Compound I-5, (2S)-2-((R)-7-fluoroisochroman-1-yl)pyrrolidine]
GABA percent inhibition of specific binding (GABA (non-selective)): 57%

Fc1ccc2c(c1)CCO[C@H]2[C@@H]1CCN1 [Compound I-90, (S)-2-((R)-6-fluoroisochroman-1-yl)azetidine]
Sert percent inhibition of specific binding (5-HT transporter): 80%

Fc1cccc2c1[C@H]([C@@H]1CCN1)OCC2 [Compound I-83, (S)-2-((R)-8-fluoroisochroman-1-yl)azetidine]
5HT5a percent inhibition of specific binding (5-HT5a): 58%
